Measurements as given in patent US9751919B2, “Antimicrobial compositions comprising a hyaluronic acid binding peptide and a β-lactam antibiotic” (priority 2012, dated 2017).

Test system: Gram-positive cocci
Assay: Checkerboard assay, panel statement
Type: cell-based
Method: The checkerboard assays were carried out as described by Eliopoulos and Moellering (Chapter 9) in Antibiotic in Laboratory Medicine, Lorian Ed. 1996 as well as Bonapace et al. Diagnostic Microbiology and Infectious Diseases 2002; 44:363-366 and Bonapace et al. Diagnostic Microbiology and Infectious Diseases 2000; 38:43-50. In brief, checkerboard assays were performed in 96 well microtitre trays using an 8-by-8 well configuration. […] 96-well custom designed microtitre plates contained 100 ul/well of cation adjusted Mueller-Hinton broth (eg. for Enterobacteriaceae) with or without lysed horse blood (2-5% V/V) [eg. for S. pneumoniae] and were inoculated to achieve a final concentration of approximately 5×10^5 CFU/ml and incubated in ambient air for 24 hours prior to reading. Colony counts were performed periodically to confirm inocula. Quality control was performed every two weeks using a variety of ATCC QC organisms including; S. pneumoniae 49619, S. aureus 29213, E. faecalis 29212, E. coli 25922 and P. aeruginosa 27853. For all antimicrobials as well as PEP35, CLSI criteria was used.
The fractional inhibitory concentration index (FIC index) was used to interpret synergy, antagonism or additivity/indifference. FIC index=FIC of drug A+FIC of drug B where:
The FIC of drug A and drug B is calculated as follows, FIC drug A=MIC of drug A in combination/MIC of drug A alone and FIC of drug B=MIC of drug B in combination/MIC of drug B alone. Synergy is defined as FIC index ≦0.5, additivity/indifference FIC >0.5-4 and antagonism FIC index >4.
Antimicrobials used included PEP35, cefazolin, ceftriaxone, vancomycin, linezolid, tigecycline and daptomycin versus Gram-positive cocci and PEP35, gentamicin, levofloxacin, piperacillin/tazobactam, meropenem and colistin (Polymyxin E) versus Gram-negative bacilli. These agents were obtained as laboratory grade powders from their respective manufacturers. Stock solutions were prepared and dilutions made as described by the Clinical Laboratory Standards Institute (2005 CLSI).
Organisms included Gram-positive cocci (2 strains of each): Methicillin-susceptible Staphylococcus aureus (MSSA), community-associated (CA) and healthcare-associated (HA) methicillin-resistant Staphylococcus aureus (MRSA), vancomycin-intermediate Staphylococcus aureus (VISA), vancomycin-resistant Staphylococcus aureus (VRSA), methicillin-resistant Staphylococcus epidermidis (MRSE), Streptococcus pyogenes, Streptococcus agalactiae, Streptococcus pneumoniae, Enterococcus faecalis, Enterococcus faecium and vancomycin-resistant enterococcus (VRE). […] MIC testing, following two subcultures from frozen stock were determined by the CLSI 2005 approved broth microdilution method.

Sequence: LKQKIKHVVKLKVVVKLRSQLVKRKQN (listed as Mus sp.) [PEP35]
- interaction (in words) (with cefazolin and ceftriaxone, CA-MRSA and HA-MRSA): synergistic
- antagonism (in words) (with cefazolin, ceftriaxone, daptomycin, linezolid, tigecycline and vancomycin, any streptococci, staphylococci and enterococci tested): did not demonstrate antagonism
- interaction (in words) (with the six antibiotics, all streptococci, staphylococci and enterococci except CA-MRSA and HA-MRSA): additive
